Publication PMC10815170, “Exploring the Blood Glucose-Lowering Potential of the Umami Peptides LADW and EEAEGT Derived from Tuna Skeletal Myosin: Perspectives from α-Glucosidase Inhibition and Starch Interaction” (Foods, 2024)
Peptide text beside a SMILES is read from it.

Assays:
[1] = molecular target: T1, α-Glucosidase from Saccharomyces cerevisiae (Saccharomyces cerevisiae, UniProt P53341); experiment: α-Glucosidase inhibitory activity (pNPG); format: biochemical; settings: PBS pH 6.8, 37 °C, 405 nm; for α-glucosidase inhibitory rate: 10 mM peptide, pNPG, n = 3; for IC50: 15 min preincubation, pNPG 15 min, mean ± SD (n = 3), read-out: IC50 value, α-glucosidase inhibition
T1 construct: purchased Yuanye Bio-Technology Co., Ltd. (Shanghai, China)
T1 sequence (P53341 whole entry): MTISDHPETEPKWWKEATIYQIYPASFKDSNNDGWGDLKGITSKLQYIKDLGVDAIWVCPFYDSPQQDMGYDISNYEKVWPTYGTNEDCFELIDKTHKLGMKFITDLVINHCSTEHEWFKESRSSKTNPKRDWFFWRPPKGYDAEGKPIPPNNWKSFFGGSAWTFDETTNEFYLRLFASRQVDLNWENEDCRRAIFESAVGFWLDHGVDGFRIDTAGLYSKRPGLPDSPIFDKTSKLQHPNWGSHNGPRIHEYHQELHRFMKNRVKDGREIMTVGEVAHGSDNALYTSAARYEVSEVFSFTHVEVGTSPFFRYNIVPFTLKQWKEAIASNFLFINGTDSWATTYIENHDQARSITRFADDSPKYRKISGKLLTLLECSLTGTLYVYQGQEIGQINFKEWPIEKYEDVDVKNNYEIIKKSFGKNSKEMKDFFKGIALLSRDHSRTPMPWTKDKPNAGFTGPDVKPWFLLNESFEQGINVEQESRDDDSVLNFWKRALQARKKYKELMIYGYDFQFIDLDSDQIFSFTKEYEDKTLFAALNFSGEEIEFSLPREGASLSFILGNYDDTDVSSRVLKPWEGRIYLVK
Description: α-Glucosidase from Saccharomyces cerevisiae (activity ≥ 30 U/mg) and porcine bile salt (purity ≥ 60.0%) were obtained from Yuanye Bio-Technology Co., Ltd. (Shanghai, China). Pepsin (activity ≥ 800 U/mg), pancreatin (activity ≥ 4000 U/g), and amyloglucosidase (activity ≥ 10,000 U/g) were obtained from Shanghai Ryon Biological Technology Co., Ltd. The p-nitrobenzene-α-D-glucopyranoside (pNPG, purity ≥ 99.0%) was purchased from Sigma-Aldrich (Shanghai, China). Peptides LADW and EEAEGT (purity ≥ 98.0%) were synthesized by ALL PEPTIDE Biology Co., Ltd. (Hangzhou, China). All other chemicals and solvents were of analytical grade.
α-Glucosidase inhibitory activity was determined following the method of Zheng et al., with slight modifications. Briefly, 80.0 μL of phosphate-buffered saline (PBS, pH = 6.8), 20.0 μL of α-glucosidase (7 U/mL, dissolved in PBS), and 20.0 μL of the peptide (dissolved in PBS) were mixed and incubated at 37 °C for 15 min. Subsequently, 20.0 μL of pNPG (2.5 mM, dissolved in PBS) was added to the mixture, followed by another incubation at 37 °C for 15 min. To terminate the reaction, 60 μL of Na2CO3 (0.2 M, dissolved in PBS) was added, and the absorbance was measured at 405 nm using a SpectraMax M5 microplate reader (Molecular Devices, Sunnyvale, CA, USA). The α-glucosidase inhibitory rate (%) was determined using the following formula:α-glucosidase inhibitory rate (%) = [1 − (Asample − Asample blank)/(Acontrol − Acontrol blank)] × 100 where Asample and Asample blank were the absorbance values with and without α-glucosidase added, respectively; Acontrol and Acontrol blank were the absorbance values with and without peptide solution added, respectively, after replacing α-glucosidase solution with PBS solution. The above solution without addition was replaced by PBS solution.

[2] = sensory evaluation in previous work; ref [7]; cited from earlier work
Description: The intestinal stability, non-toxicity, and absorbability of peptides were considered important indicators for identifying bioactive peptides. In our previous work, these peptides were also confirmed to be non-toxic by sensory evaluation, and the peptides LADW and […] were obtained by hydrolysis with three common enzymes (pepsin, trypsin, and chymotrypsin) in the GI tract. […] Therefore, the potential α-GIPs identified in this study were presumed to withstand hy ...

[3] = sensory evaluation in previous work; ref [7]; cited from earlier work; remark: listed apart in the source
Description: Table 1 Prediction results of physicochemical properties and potential activity of peptides. | column: Umami Threshold (mg/mL)

[4] = parameters: method as in PMID 8001624; settings: clinical practice; ref [3]; cited from earlier work

| Compound | α-glucosidase inhibitory rate [1] [%] | IC50 [1] [mM] | Toxicity [2] | Umami Threshold [3] [mg/mL] | Adverse effects [4] |
| --- | --- | --- | --- | --- | --- |
| C[C@H](NC(=O)[C@H](CCC(=O)O)NC(=O)[C@@H](N)CCC(=O)O)C(=O)N[C@@H](CCC(=O)O)C(=O)NCC(=O)N[C@H](C(=O)O)[C@@H](C)O [EEAEGT] (H-EEAEGT-OH) | 96.44 | 6.46 ± 0.22 | non-toxic | – | – |
| VAEQE [novel umami peptide identified in the hydrolysate of tuna skeletal myosin] | – | – | – | 0.125 | – |
| MEIDD [novel umami peptide identified in the hydrolysate of tuna skeletal myosin] | – | – | – | 0.250 | – |
| C[C@H]1O[C@H](O[C@H]2[C@H](O)[C@@H](O)[C@@H](O[C@H]3[C@H](O)[C@@H](O)C(O)O[C@@H]3CO)O[C@@H]2CO)[C@H](O)[C@@H](O)[C@@H]1N[C@H]1C=C(CO)[C@@H](O)[C@H](O)[C@H]1O (stereo partly drawn) [acarbose] | – | – | – | – | flatulence, diarrhea, and abdominal pain |
| CC(C)C[C@H](N)C(=O)N[C@@H](C)C(=O)N[C@@H](CC(=O)O)C(=O)N[C@@H](Cc1c[nH]c2ccccc12)C(=O)O [LADW] (H-LADW-OH) | 98.15 | 4.4 ± 0.04 | non-toxic | – | – |
